Read-outs that look alike come from different tables or passages of the source.
Test system: P. falciparum Dd2
Assay: In vitro P. falciparum blood-stage culture and assay
Type: cell-based
Settings: 72 h incubation, SYBR Green I readout, read-out: Pf Dd2
Experimental: Strains of P. falciparum (Dd2, 3D7, D6, K1, NF54, V1/3, HB3, 7G8, FCB and TM90C2B) were obtained from the Malaria Research and Reference Reagent Resource Center (MR4). P. falciparum isolates were maintained with O-positive human blood in an atmosphere of 93% N2, 4% CO2, 3% O2 at 37° C. in complete culturing medium (10.4 g/L RPMI 1640, 5.94 g/L HEPES, 5 g/L albumax II, 50 mg/L hypoxanthine, 2.1 g/L sodium bicarbonate, 10% human serum and 43 mg/L gentamicin). Parasites were cultured in medium until parasitaemia reached 3-8%. Parasitaemia was determined by checking at least 500 red blood cells from a Giemsa-stained blood smear. For the compound screening, a parasite dilution at 2.0% parasitaemia and 2.0% haematocrit was created with medium. 25 μl of medium was dispensed into 384-well black, clear-bottom plates and 100 nl of each compound in DMSO was transferred into assay plates along with the control compound (mefloquine). Next, 25 μl of the parasite suspension in medium was dispensed into the assay plates giving a final parasitaemia of 1% and a final haematocrit of 1%. The assay plates were incubated for 72 h at 37° C. 10 μl of detection reagent consisting of 10×SYBR Green I (Invitrogen; supplied in 10,000× concentration) in lysis buffer (20 mM Tris-HCl, 5 mM EDTA, 0.16% (w/v) Saponin, 1.6% (v/v) Triton X-100) was dispensed into the assay plates. For optimal staining, the assay plates were left at room temperature for 24 h in the dark. The assay plates were read with 505 dichroic mirrors with 485 nm excitation and 530 nm emission settings in an Envision (PerkinElmer).

[1] = Plasmodium falciparum, DD2, 72 h

CN(C)C[C@@H]1[C@H](c2ccc(C#Cc3ccccc3)cc2)[C@@H]2CN(C(=O)Nc3ccc(OC4CC4)cc3)C[C@@H](O)[C@@H](O)CN12 (single isomer, unassigned) [Example E1]
EC50 [1]: < 50 nM

COc1ccc(NC(=O)N2CCC(O)CN3[C@H](CN(C)C)[C@H](c4ccc(C#Cc5ccccc5)cc4)[C@@H]3C2)cc1 (single isomer, unassigned) [Example E16]
EC50: > 250 nM

COc1ccc(NC(=O)N2CCC(O)CN3[C@H](CN(C)C)[C@H](c4ccc(C#Cc5ccccc5)cc4)[C@@H]3C2)cc1 (single isomer, unassigned) [Example E17]
EC50: < 50 nM

COc1ccc(NC(=O)N2C[C@@H](OC)[C@@H](OC)CN3[C@H](CN(C)C)[C@H](c4ccc(C#Cc5ccccc5)cc4)[C@@H]3C2)cc1 [Example E2, (3S,4R,8R,9S,10S)-10-((dimethylamino)methyl)-3,4-dimethoxy-N-(4-methoxyphenyl)-9-(4-(phenylethynyl)phenyl)-1,6-diazabicyclo[6.2.0]decane-6-carboxamide]
EC50 [1]: < 50 nM

COc1ccc(NC(=O)N2C[C@@H](N(C)C)CCN3[C@H](CO)[C@H](c4ccc(C#Cc5ccccc5)cc4)[C@@H]3C2)cc1 [Example E3, (4S,8R,9R,10S)-4-(dimethylamino)-10-(hydroxymethyl)-N-(4-methoxyphenyl)-9-(4-(phenylethynyl)phenyl)-1,6-diazabicyclo[6.2.0]decane-6-carboxamide]
EC50 [1]: > 250 nM

COc1ccc(NC(=O)N2C[C@@H](O)[C@@H](O)CN3[C@H](CN(C)C)[C@H](c4ccc(C#Cc5ccccc5)cc4)[C@@H]3C2)cc1 [Example E5, (3S,4R,8R,9S,10S)-10-((dimethylamino)methyl)-3,4-dihydroxy-N-(4-methoxyphenyl)-9-(4-(phenylethynyl)phenyl)-1,6-diazabicyclo[6.2.0]decane-6-carboxamide]
EC50 [1]: < 50 nM

COc1ccc(NC(=O)N2C[C@@H](O)[C@@H](O)CN3[C@H](CN(C)C)[C@H](c4ccc(C#Cc5ccccc5F)cc4)[C@@H]3C2)cc1 [Example E7, (3S,4R,8R,9S,10S)-10-[(dimethylamino)methyl]-9-[4-[2-(2-fluorophenyl)ethynyl]phenyl]-3,4-dihydroxy-N-(4-methoxyphenyl)-1,6-diazabicyclo[6.2.0]decane-6-carboxamide]
EC50 [1]: < 50 nM

COc1ccc(NC(=O)N2C[C@H](O)[C@H](O)CN3[C@H](CN(C)C)[C@H](c4ccc(C#Cc5ccccc5F)cc4)[C@@H]3C2)cc1 [Example E8, (3R,4S,8R,9S,10S)-10-[(dimethylamino)methyl]-9-[4-[2-(2-fluorophenyl)ethynyl]phenyl]-3,4-dihydroxy-N-(4-methoxyphenyl)-1,6-diazabicyclo[6.2.0]decane-6-carboxamide]
EC50 [1]: 50 to 250 nM

CCN(CC)C[C@@H]1[C@H](c2ccc(C#Cc3ccccc3)cc2)[C@@H]2CN(C(=O)Nc3ccc(OC)cc3)C[C@@H](O)[C@@H](O)CN12 [Example E9, (3S,4R,8R,9S,10S)-10-(diethylaminomethyl)-3,4-dihydroxy-N-(4-methoxyphenyl)-9-[4-(2-phenylethynyl)phenyl]-1,6-diazabicyclo[6.2.0]decane-6-carboxamide]
EC50 [1]: < 50 nM

COc1ccc(NC(=O)N2C[C@@H](O)[C@@H](O)CN3[C@H](CN(C)C(C)C)[C@H](c4ccc(C#Cc5ccccc5)cc4)[C@@H]3C2)cc1 [Example E10, (3S,4R,8R,9S,10S)-3,4-dihydroxy-10-[[isopropyl(methyl)amino]methyl]-N-(4-methoxyphenyl)-9-[4-(2-phenylethynyl)phenyl]-1,6-diazabicyclo[6.2.0]decane-6-carboxamide]
EC50 [1]: < 50 nM

COc1ccc(NC(=O)N2C[C@H](O)[C@H](O)CN3[C@H](CN(C)C(C)C)[C@H](c4ccc(C#Cc5ccccc5)cc4)[C@@H]3C2)cc1 [Example E11, (3R,4S,8R,9S,10S)-3,4-dihydroxy-10-[[isopropyl(methyl)amino]methyl]-N-(4-methoxyphenyl)-9-[4-(2-phenylethynyl)phenyl]-1,6-diazabicyclo[6.2.0]decane-6-carboxamide]
EC50 [1]: 50 to 250 nM

COc1ccc(NC(=O)N2C[C@@H](O)[C@@H](O)CN3[C@H](CN(C)C)[C@H](c4ccc(C#Cc5cccc(F)c5F)cc4)[C@@H]3C2)cc1 [Example E12, (3S,4R,8R,9S,10S)-9-(4-((2,3-difluorophenyl)ethynyl)phenyl)-10-((dimethylamino)methyl)-3,4-dihydroxy-N-(4-methoxyphenyl)-1,6-diazabicyclo[6.2.0]decane-6-carboxamide]
EC50 [1]: 50 to 250 nM

COc1ccc(NC(=O)N2C[C@H](O)[C@H](O)CN3[C@H](CN(C)C)[C@H](c4ccc(C#Cc5cccc(F)c5F)cc4)[C@@H]3C2)cc1 [Example E13, (3R,4S,8R,9S,10S)-9-[4-[2-(2,3-difluorophenyl)ethynyl]phenyl]-10-[(dimethylamino)methyl]-3,4-dihydroxy-N-(4-methoxyphenyl)-1,6-diazabicyclo[6.2.0]decane-6-carboxamide]
EC50 [1]: < 50 nM

COc1ccc(NC(=O)N2C[C@H]3OCCO[C@H]3CN3[C@H](CN(C)C)[C@H](c4ccc(C#Cc5ccccc5)cc4)[C@@H]3C2)cc1 [Example E14, (4aR,7aR,8S,9S,11aS)-9-((dimethylamino)methyl)-N-(4-methoxyphenyl)-8-(4-(phenylethynyl)phenyl)octahydro-2H-azeto[1,2-a][1,4]dioxino[2,3-f][1,4]diazocine-6(3H)-carboxamide]
EC50 [1]: < 50 nM

COc1ccc(NC(=O)N2C[C@@H](O)[C@@H](O)CN3[C@H](CO)[C@H](c4ccc(C#Cc5cccnc5)cc4)[C@@H]3C2)cc1 [Example E22, (3S,4R,8R,9R,10S)-3,4-dihydroxy-10-(hydroxymethyl)-N-(4-methoxyphenyl)-9-(4-(pyridin-3-ylethynyl)phenyl)-1,6-diazabicyclo[6.2.0]decane-6-carboxamide]
EC50 [1]: > 250 nM

COc1ccc(NC(=O)N2C[C@H](O)[C@H](O)CN3[C@H](CO)[C@H](c4ccc(C#Cc5cccnc5)cc4)[C@@H]3C2)cc1 [Example E23, (3R,4S,8R,9R,10S)-3,4-dihydroxy-10-(hydroxymethyl)-N-(4-methoxyphenyl)-9-(4-(pyridin-3-ylethynyl)phenyl)-1,6-diazabicyclo[6.2.0]decane-6-carboxamide]
EC50 [1]: 50 to 250 nM

COc1ccc(NC(=O)N2C[C@@H](O)CCN3[C@H](CN(C)C)[C@H](c4ccc(C#Cc5ccccc5)cc4)[C@@H]3C2)cc1 [Example E24, (4S,8R,9S,10S)-10-[(dimethylamino)methyl]-4-hydroxy-N-(4-methoxyphenyl)-9-[4-(2-phenylethynyl)phenyl]-1,6-diazabicyclo[6.2.0]decane-6-carboxamide]
EC50 [1]: > 250 nM

COc1ccc(NC(=O)N2CCC(CN(C)C)CN3[C@H](CN(C)C)[C@H](c4ccc(C#Cc5ccccc5)cc4)[C@@H]3C2)cc1 (stereo partly drawn) [Example E25, (8R,9S,10S)-3,10-bis[(dimethylamino)methyl]-N-(4-methoxyphenyl)-9-[4-(2-phenylethynyl)phenyl]-1,6-diazabicyclo[6.2.0]decane-6-carboxamide]
EC50 [1]: 50 to 250 nM

COc1ccc(NC(=O)N2CC[C@@H](N(C)C)CN3[C@H](CO)[C@H](c4ccc(C#Cc5ccccc5)cc4)[C@@H]3C2)cc1 [Example E28, (3R,8R,9R,10S)-3-(dimethylamino)-10-(hydroxymethyl)-N-(4-methoxyphenyl)-9-[4-(2-phenylethynyl)phenyl]-1,6-diazabicyclo[6.2.0]decane-6-carboxamide]
EC50 [1]: 50 to 250 nM

COc1ccc(NC(=O)N2CC[C@H](N(C)C)CN3[C@H](CO)[C@H](c4ccc(C#Cc5ccccc5)cc4)[C@@H]3C2)cc1 [Example E29, (3S,8R,9R,10S)-3-(dimethylamino)-10-(hydroxymethyl)-N-(4-methoxyphenyl)-9-(4-(phenylethynyl)phenyl)-1,6-diazabicyclo[6.2.0]decane-6-carboxamide]
EC50 [1]: 50 to 250 nM

COc1ccc(NC(=O)N2C[C@H](N(C)C)CCN3[C@H](CO)[C@H](c4ccc(C#Cc5ccccc5)cc4)[C@@H]3C2)cc1 [Example E30, (4R,8R,9R,10S)-4-(dimethylamino)-10-(hydroxymethyl)-N-(4-methoxyphenyl)-9-(4-(phenylethynyl)phenyl)-1,6-diazabicyclo[6.2.0]decane-6-carboxamide]
EC50 [1]: > 250 nM

COc1ccc(NC(=O)N2CC(CN(C)C)CCN3[C@H](CO)[C@H](c4ccc(C#Cc5ccccc5)cc4)[C@@H]3C2)cc1 (stereo partly drawn) [Example E31, (8R,9R,10S)-4-((dimethylamino)methyl)-10-(hydroxymethyl)-N-(4-methoxyphenyl)-9-(4-(phenylethynyl)phenyl)-1,6-diazabicyclo[6.2.0]decane-6-carboxamide]
EC50 [1]: > 250 nM

COc1ccc(NC(=O)N2CC(CN(C)C)CCN3[C@H](CN(C)C)[C@H](c4ccc(C#Cc5ccccc5)cc4)[C@@H]3C2)cc1 (stereo partly drawn) [Example E32, (8R,9S,10S)-4,10-bis[(dimethylamino)methyl]-N-(4-methoxyphenyl)-9-[4-(2-phenylethynyl)phenyl]-1,6-diazabicyclo[6.2.0]decane-6-carboxamide]
EC50 [1]: > 250 nM

From patent US11174260B2, “Compounds and methods for the treatment of parasitic diseases” (THE BROAD INSTITUTE, INC., priority 2017, dated 2021)
